From patent publication US20040086514A1, “Novel helicobacter pylori-binding substances and use thereof” (priority 1999, published 2004)
Entries after “also recorded” stand apart in the source; their conditions may differ.

Experiments:
Helicobacter pylori [1] = assay: Chromatogram binding assay: 35S-labeled Helicobacter pylori to glycosphingolipids on thin-layer plates; conditions: for binding of Helicobacter pylori to major acid glycosphingolipids of epithelial cells of human stomach: strains 002 and 032, identified tentatively by mobility on thin-layer chromatograms; for dependence of binding on other lipids or bile salts (Tween 20, deoxycholate) in the thin-layer chromatogram assay: coating buffer with or without detergent (FIG. 1); for binding of Helicobacter pylori in mixtures of reference glycosphingolipids: strain 17875, non-acid fractions of dog small intestine, guinea pig small intestine, mouse faeces (FIG. 1)
Helicobacter pylori [2] = assay: Inhibition of binding on thin-layer chromatograms with soluble oligosaccharides; conditions: for inhibition of binding of Helicobacter pylori to lactotetraosylceramide: 1 h room temperature, strain 17875 (FIG. 5)
Protocol: As a test for possible inhibition of binding by soluble sugars 35S-labeled Helicobacter pylori strains 002 and 032 were incubated for 1 h at room temperature with various concentrations (0.05 mg/ml, 0.1 mg/ml and 0.2 mg/ml) of lactotetraose (Accurate Chem. & Sci. Corp., Westbury, N.Y.) or lactose (J. T. Baker Chem. Co., Phillipsburg, N.J.) in PBS. Thereafter the chromatogram binding assay was performed as described above, using chromatograms with separated gangliotetraosylceramide, lactotetraosylceramide and reference glycosphingolipids.
The ability of soluble oligosaccharides to interfere with the binding of Helicobacter pylori to glycosphingolipids on thin-layer plates was examined by incubating radiolabelled Helicobacter pylori strain 17875 with free lactotetraose (0.1 mg/ml) or lactose (0.2 mg/ml) in PBS for 1 h at room temperature before the chromatogram binding assay of the suspensions. […] The lanes were: Galβ3GalNAcβ4Galβ4Glcβ1Cer (gangliotetraosylceramide), 4 μg (lane 1); Galβ3GlcNAcβ3Galβ4Glcβ1Cer (lactotetraosylceramide), 4 μg (lane 2); Galβ4GlcNAcβ3Galβ4Glcβ1Cer (neolactotetraosylceramide), 4 μg (lane 3). The glycosphingolipids were separated on aluminium-backed silica gel 60 HPTLC plates, using chloroform/methanol/water (60:35:8, by volume) as solvent system, and the binding assay was performed as described under “Materials and Methods”, using 2% BSA and 0.1% Tween 20 in PBS as coating buffer. Autoradiography was for 12 h.

sulfatide [reference compound]
binding of Helicobacter pylori to major acid glycosphingolipids of epithelial cells of human stomach (Helicobacter pylori [1]): No binding; also recorded: non-existent

Galβ3GlcNAcβ3Galβ4Glcβ1Cer
binding activity relative to lactotetraosylceramide from human meconium (Helicobacter pylori [1]; ceramide exclusively sphingosine and non-hydroxy 16:0 and 24:0 fatty acids, not shown): as active as the lactotetraosylceramide from human meconium

Galβ3GlcNAcβ3Galβ4Glcβ1Cer [No. 2]
Helicobacter pylori isolates expressing the lactotetraosylceramide binding capacity (Helicobacter pylori [1]; 66 isolates of Table I, lactotetraosylceramide of human meconium): 86%
recognition by sialic acid-binding H. pylori strain CCUG 17874 (Helicobacter pylori [1]; FIG. 11 B): recognised
recognition by H. pylori strain CCUG 17875 devoid of sialic acid binding capacity (Helicobacter pylori [1]; FIG. 11 C): recognised
effect of bacterial growth conditions on binding (Helicobacter pylori [1]; bacteria grown on agar and in broth, for 12 h and for 120 h): not affected
dependence of binding on other lipids or bile salts (Tween 20, deoxycholate) in the thin-layer chromatogram assay (Helicobacter pylori [1]): only when other lipids or bile salts, such as Tween 20 or deoxycholate, are used
binding by babAlA2 mutant strain (Helicobacter pylori [1]; gene coding for the Le^b-binding adhesin inactivated, data not shown): Binding
number of Helicobacter pylori isolates expressing the lactotetraosylceramide binding capacity (Helicobacter pylori [1]; of 66 isolates of Table I, lactotetraosylceramide of human meconium): 57

Galβ3GalNAcβ4Galβ4Glcβ1Cer [gangliotetraosylceramide]
dependence of binding on other lipids or bile salts (Tween 20, deoxycholate) in the thin-layer chromatogram assay (Helicobacter pylori [1]): only marginally is affected
binding of Helicobacter pylori in mixtures of reference glycosphingolipids (Helicobacter pylori [1]): binding

lactosylceramide [reference compound]
binding of Helicobacter pylori in mixtures of reference glycosphingolipids (Helicobacter pylori [1]): binding

maltoheptaose(red) -HDA [reference compound]
binding activity with regard to Helicobacter pylori in TLC-overlay assay (Helicobacter pylori [1]; 4-hexadecylaniline (HDA) derivatives, compared with lactotetraosylceramide glycosphingolipid): totally inactive

gangliotriaosylceramide [reference compound]
binding of Helicobacter pylori in mixtures of reference glycosphingolipids (Helicobacter pylori [1]): binding

CC(=O)N[C@H]1[C@H](O[C@H]2[C@@H](O)[C@@H](CO)O[C@@H](O[C@H]3[C@H](O)[C@@H](O)C(O)O[C@@H]3CO)[C@@H]2O)O[C@H](CO)[C@@H](O)[C@@H]1O[C@@H]1O[C@H](CO)[C@H](O)[C@H](O)[C@H]1O (stereo partly shown) [lactotetraose, Galβ3GlcNAcβ3Galβ4Glc]
inhibition of binding of Helicobacter pylori to lactotetraosylceramide (Helicobacter pylori [2]; bacteria preincubated with 0.1 mg/ml in PBS): inhibited the binding
blocking of binding of H. pylori to gangliotetraosylceramide (Helicobacter pylori [2]; preincubation with soluble oligosaccharide (FIG. 5)): able to block binding

OC[C@H]1O[C@@H](O[C@H]2[C@H](O)[C@@H](O)C(O)O[C@@H]2CO)[C@H](O)[C@@H](O)[C@H]1O (stereo partly shown) [lactose, reference compound]
inhibition of binding of Helicobacter pylori to lactotetraosylceramide (Helicobacter pylori [2]; bacteria preincubated with 0.2 mg/ml in PBS): no inhibitory effect

NeuAcα3Galβ4Glcβ1Cer [GM3, reference compound]
binding of Helicobacter pylori to major acid glycosphingolipids of epithelial cells of human stomach (Helicobacter pylori [1]): No binding
binding of Helicobacter pylori to major acid glycosphingolipids of epithelial cells of human stomach (Helicobacter pylori [1]; listed as GM3 ganglioside): non-existent
